# How the values were obtained:
# [1] = system: OPM2 or RPMI-8226 target cells; experiment: Cytolytic activity of anti-BCMA CAR-T cells co-cultured with target cells +/- LY3039478 (IncuCyte); format: cell-based, human
# Excerpt: In this study, to generate anti-BCMA CAR-expressing T cells, CD4+ and CD8+ T cells were isolated by immunoaffinity-based enrichment from leukapheresis samples from two healthy donor subjects and one myeloma patient. Isolated T cells were activated and transduced with a viral vector encoding an anti-BCMA CAR. The CAR contained an scFv antigen-binding domain specific for BCMA having a VH domain and a VL domain with amino acid sequences set forth in SEQ ID NOS: 24 and 25, respectively, a spacer, a spacer having an amino acid sequence set forth in SEQ ID NO:31, a CD28 transmembrane region, a 4-1BB costimulatory signaling region and a CD3-zeta derived intracellular signaling domain. The nucleic acid construct encoding the CAR also included a truncated receptor sequence for use as a transduction marker, separated from the CAR sequence by a self-cleaving T2A sequence.
# Anti-BCMA CAR-T cells generated as described in this Example above were cultured at 37° C. with either OPM2 or RPMI-8226 target cells at an effector to target (E:T) ratio of 0.3:1. The target cells were labeled with NucLight Red (NLR), to permit tracking of target cells by microscopy. Cultures were incubated in the absence of LY3039478 or in the presence of LY3039478 at concentrations of 0.1 nM, 1 nM, 10 nM, 100 nM, 1000 nM, 10000 nM or 100000 nM (the range covering the estimated human pharmacokinetic range is shown by the boxes in FIGS. 3A-3D). As a control, target cells were incubated with LY3039478 but without culture with CAR-T cells. Cytolytic activity was assessed by measuring the loss of viable target cells after about 150 hours, as determined by red fluorescent signal (using the IncuCyte® Live Cell Analysis System, Essen Bioscience). The area under the curve for killing observed during the culture period (˜150 hours) was determined. Percent lysis (% killing) was determined by normalizing the AUC for killing to cultures incubated without the inhibitor.
# [2] = system: RPMI-8226 human multiple myeloma xenograft; format: in vivo
# Experimental: Anti-tumor effects following administration of anti-BCMA CAR T cells and a gamma secretase inhibitor compound, LY3039478, each, individually, and in combination, were assessed in a RPMI-8226 human multiple myeloma xenograft mouse model. The anti-BCMA CAR-expressing T cells were generated as described in Example 2.
# NOD.Cg.PrkdescidIL2rgtm1 Wjl/SzJ (NSG) mice were injected subcutaneously (s.c.) with 1E+07 RPMI-8226 cells modified to express GFP and firefly luciferase (RPMI-8226 ffluc), and tumor volume was allowed to increase over the course of 25 days, the 25th day being designated “day 0” in this study. Animals were divided into 8 groups, and each group received one of the following treatments: (1) vehicle only, (2) LY3039478 (3 mg/kg) only, (3) Mock T cells (not expressing the CAR) (3.00E+06 T cells per mouse) and vehicle, (4) Mock T cells (3.00E+06 T cells per mouse) and LY3039478 (3 mg/kg), (5) anti-BCMA CAR+ T cells (1.00E+06 CAR+ cells per mouse) and vehicle, (6) anti-BCMA CAR+ T cells (1.00E+06 CAR+ cells per mouse) and LY3039478 (3 mg/kg), (7) anti-BCMA CAR+ T cells (3.00E+06 CAR+ cells per mouse) and vehicle, or (8) anti-BCMA CAR+ T cells (3.00E+06 CAR+ cells per mouse) and LY3039478 (3 mg/kg). In each group, LY3039478 or vehicle was delivered by mouth (p.o.) at day-1 and at day zero (0) and every other day (e.o.d.) up to day 21. Where applicable, T cells were administered by a single intravenous (i.v.) injection on day 0.
# CAR+ T cells in blood and in tumor were assessed on days 7, […], 21, and 28 by flow cytometry using antibodies specific for cell surface markers and a reagent specific to the anti-BCMA CAR. Animal survival was monitored throughout the study.
# The presence of CAR+ T cells in the blood was monitored over the course of the study (from blood drawn on days 7, 14, 21 and 28 post CAR-T cell administration). White blood cells from blood samples were stained with various reagents to detect various markers on the surface of immune cells, including T cells, and expression of the CAR (including a reagent specific for the CAR and a reagent specific for a transduction marker encoded by the CAR vector).
# Tumor digests were also analyzed to determine the number of CD4+ and CD8+ CAR+ T cells in tumors following the various treatment conditions. […] Serum BCMA was also assessed according to treatment condition.
# [3] = system: anti-BCMA CAR+ T cells; experiment: Anti-BCMA CAR+ T cells incubated with BCMA-containing beads +/- LY3039478 (Luminex); format: cell-based, human; conditions: different concentrations
# Experimental: Various parameters indicative of T cell function were assessed following incubation of anti-BCMA CAR+ T cells with BCMA-containing beads in the presence of different concentrations of the gamma secretase inhibitor, LY3039478, or vehicle (DMSO). Supernatant was harvested after 24 hours and production of TNF-alpha, IFN-gamma and IL-2 were measured using a Luminex Multiplex Assay.
# [4] = system: BCMA on the surface of multiple myeloma cells; experiment: BCMA surface expression on multiple myeloma cells in patients given oral LY3039478; format: in vivo, human; conditions: mean, three 25 mg oral doses
# Experimental: Three human subjects having multiple myeloma were administered three 25 mg doses of the gamma secretase inhibitor (GSI) LY3039478 by mouth. The absolute B cell maturation antigen (BCMA) antibody binding capacity (ABC) on the surface of multiple myeloma cells was quantitated by flow cytometry performed on bone marrow aspirate specimens obtained from each of the patients prior to administration of the GSI, and immediately after the third oral GSI dose. A mean 66-fold increase in BCMA ABC was observed following GSI administration (FIG. 15A).
# [5] = no CAR+ T cells, LY3039478 3 mg/kg p.o. alone or with Mock T cells 3.00E+06
smiles,measurement,setting,value
"C[C@H](NC(=O)CCC(F)(F)F)C(=O)N[C@@H]1C(=O)N(CCO)c2ncccc2-c2ccccc21 [LY3039478, 4,4,4-trifluoro-N-[(1S)-2-[[(7S)-5-(2-hydroxyethyl)-6-oxo-7H-pyrido[2,3-d][3]benzazepin-7-yl]amino]-1-methyl-2-oxo-ethyl]butanamide]",cytolytic activity of anti-BCMA CAR T cells (% killing),"[1]; 0.1 nM to 100000 nM, E:T 0.3:1, about 150 hours, myeloma patient-derived CAR-T, OPM2 and RPMI-8226",increased the cytolytic activity
same,detrimental effects on CAR T cell function,[1]; 100 μM LY3039478,No detrimental effects
same,CAR-T function,[1]; CAR-T cells derived from the other donors,increase in CAR-T function
same,target survival,[1]; LY3039478 alone without CAR-T cells,No differences
same,Day 65 Survival %,[2]; [5],0%
same,Median Survival,[2]; [5],22.5 days
same,Number of deaths,[2]; [5],10
same,"surface BCMA MFI on RPMI-8226 tumor cells (tumor digests, flow cytometry)","[2]; presence of LY3039478, days 7 and 15",increased
same,peripheral blood count of CD4+ or CD8+ T cells that did not express the anti-BCMA CAR,[2]; treated with or without LY3039478,No changes
same,CAR+ T cell count,[3],did not impact
same,viability,[3],did not impact
same,"cytokine production (TNF-alpha, IFN-gamma and IL-2)",[3]; 24 hours,did not impact
same,increase in BCMA antibody binding capacity (ABC) following GSI administration,"[4]; three subjects, bone marrow aspirate",66 fold
same,percentage of plasma cells with measurable surface BCMA expression following the three oral doses,[4]; 35% (mean) before GSI,98.4%

# From patent publication US12193994B2, “Combination of a cell therapy and a gamma secretase inhibitor” (Juno Therapeutics, Inc., priority 2017, dated 2025)
